Measured values from article PMC9646970 (Poultry Science, 2022).
Like-named read-outs stand apart in the source and are kept apart here.

Tests used:
[1] = assay type: in vivo, broiler chickens
[2] = assay type: in vivo, broiler chickens; conditions: single ENR administration (i.v. 10 mg/kg or p.o. 20 mg/kg) with or without CsA or AC
[3] = Population pharmacokinetic analysis; assay type: in vivo, broiler chickens; conditions: for AUC: geometric mean
[4] = cited from earlier work
[5] = population fixed effect, p.o. administration
[6] = oral administration, same dose (20 mg/kg), ref Xiao et al., 2018

- AUC ([1]; Ross hybrid (Cornish × Plymouth Rock), plasma, po, 20 mg/kg, AUC, enrofloxacin in plasma, enrofloxacin p.o. 20 mg/kg + cyclosporine A p.o. 50 mg/kg, geometric mean (min–max)): 40400 ng·h/mL
- Cmax ([1]; Ross hybrid (Cornish × Plymouth Rock), plasma, po, 20 mg/kg, Cmax, enrofloxacin in plasma, enrofloxacin p.o. 20 mg/kg + cyclosporine A p.o. 50 mg/kg, geometric mean (min–max)): 5620 ng/mL
- Tmax ([1]; Ross hybrid (Cornish × Plymouth Rock), plasma, po, 20 mg/kg, Tmax, enrofloxacin in plasma, enrofloxacin p.o. 20 mg/kg + cyclosporine A p.o. 50 mg/kg, geometric mean (min–max)): 1.35 h
- increase of AUC with CsA co-administration ([1]; enrofloxacin p.o. 20 mg/kg + CsA p.o. versus enrofloxacin p.o. alone): approx. 20%
- AUC ([3]; Ross hybrid (Cornish × Plymouth Rock), plasma, iv, 10 mg/kg, AUCi.v. – activated charcoal, enrofloxacin i.v. 10 mg/kg + activated charcoal p.o. 1 g/kg): 13300 ng·h/mL
- AUC ([3]; Ross hybrid (Cornish × Plymouth Rock), plasma, iv, 10 mg/kg, AUCi.v. – cyclosporine A, enrofloxacin i.v. 10 mg/kg + cyclosporine A p.o. 50 mg/kg): 16200 ng·h/mL
- bioavailability ([3]; Ross hybrid (Cornish × Plymouth Rock), plasma, po, 20 mg/kg): 100%
- AUC ([3]; Ross hybrid (Cornish × Plymouth Rock), plasma, po, 20 mg/kg, AUCp.o. – control, enrofloxacin p.o. 20 mg/kg alone): 31200 ng·h/mL
- AUC ([3]; Ross hybrid (Cornish × Plymouth Rock), plasma, po, 20 mg/kg, AUCp.o. – cyclosporine A, enrofloxacin p.o. 20 mg/kg + cyclosporine A p.o. 50 mg/kg): 37400 ng·h/mL
- lag time (time to pass the crop and the stomach to reach the absorption site) ([3]; p.o. administration, on average): 3.24 min
- βCl BW (covariate effect of body weight on clearance) ([3]; population fixed effect, log-normalized BW): 0.77
- tvTlag (typical value of lag time) [3, 5]: 0.054 h
- tvka (typical value of absorption rate constant) [3, 5]: 1.26 h⁻¹
SMILES: CCN1CCN(c2cc3c(cc2F)c(=O)c(C(=O)O)cn3C2CC2)CC1 [Enrofloxacin, enrofloxacin]
- adverse effects [2]: No adverse effects were observed
- oral bioavailability change with verapamil co-administration ([4]; co-administered with the P-gp inhibitor verapamil, ref Guo et al., 2013): nearly doubled
- AUC ([4]; i.v. administration at 10 mg/kg, ref Atef et al., 2020): 15200 ± 1080 ng·h/mL
- AUC0-24h [4, 6]: 30.07 ± 4.64 µg/h/mL
- Cmax [4, 6]: 2860 ± 520 ng/mL
